# Measurements: patent EP3822637A1, “METHOD FOR DETERMINING PARP INHIBITOR RESPONSIVENESS AND IMPROVING PARP INHIBITOR THERAPY” (Universität Zürich, priority 2019, dated 2021)
# “Also recorded” adds a separate entry of the source.
# Tests used:
# cancer cells = assay: Clonogenic survival assay, Heclin combined with PARPi; format: cell-based; conditions: Heclin combined with PARP inhibitor Olaparib; Fig. 16d
# Experimental: Cells transfected with the indicated siRNAs were seeded at single cell density and exposed to PARPi at the indicated final concentration. All conditions were performed in triplicates. Cells were then incubated for 10 days and the number of colonies with more than 50 cells was counted after staining with crystal violet (0.5% crystal violet in 20% ethanol). GraphPad Prism was used to display clonogenic survival data.
# WWP2 = WWP2 (Homo sapiens, UniProt O00308); conditions: cited from earlier work
# WWP2, sequence (O00308 whole entry, species assumed): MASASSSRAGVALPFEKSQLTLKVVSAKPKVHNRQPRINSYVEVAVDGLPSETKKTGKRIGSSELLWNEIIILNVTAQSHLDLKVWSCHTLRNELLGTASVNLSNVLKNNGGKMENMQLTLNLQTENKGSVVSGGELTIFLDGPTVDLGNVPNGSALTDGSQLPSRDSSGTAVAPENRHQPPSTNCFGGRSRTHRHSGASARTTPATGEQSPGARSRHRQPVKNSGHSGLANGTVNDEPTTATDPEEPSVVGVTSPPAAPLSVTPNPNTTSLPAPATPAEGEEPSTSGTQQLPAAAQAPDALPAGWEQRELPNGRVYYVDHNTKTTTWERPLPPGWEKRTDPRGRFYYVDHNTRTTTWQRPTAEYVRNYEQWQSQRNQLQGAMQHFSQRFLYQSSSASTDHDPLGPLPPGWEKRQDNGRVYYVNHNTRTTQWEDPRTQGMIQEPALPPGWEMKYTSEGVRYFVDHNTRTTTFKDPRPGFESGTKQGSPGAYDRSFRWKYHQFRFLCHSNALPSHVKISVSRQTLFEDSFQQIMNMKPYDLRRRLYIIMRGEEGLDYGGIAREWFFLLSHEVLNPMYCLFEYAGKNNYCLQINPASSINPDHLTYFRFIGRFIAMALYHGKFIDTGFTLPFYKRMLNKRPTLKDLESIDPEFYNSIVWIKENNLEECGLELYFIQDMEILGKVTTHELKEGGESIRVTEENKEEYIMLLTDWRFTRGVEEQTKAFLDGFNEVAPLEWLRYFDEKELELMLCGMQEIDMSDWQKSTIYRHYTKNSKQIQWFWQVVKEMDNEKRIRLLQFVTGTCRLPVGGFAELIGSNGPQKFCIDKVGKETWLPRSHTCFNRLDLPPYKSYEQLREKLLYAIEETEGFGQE
# Nedd4 = target: T1, Nedd4 (Homo sapiens, UniProt P46934); conditions: cited from earlier work
# T1 sequence (P46934 1-1319): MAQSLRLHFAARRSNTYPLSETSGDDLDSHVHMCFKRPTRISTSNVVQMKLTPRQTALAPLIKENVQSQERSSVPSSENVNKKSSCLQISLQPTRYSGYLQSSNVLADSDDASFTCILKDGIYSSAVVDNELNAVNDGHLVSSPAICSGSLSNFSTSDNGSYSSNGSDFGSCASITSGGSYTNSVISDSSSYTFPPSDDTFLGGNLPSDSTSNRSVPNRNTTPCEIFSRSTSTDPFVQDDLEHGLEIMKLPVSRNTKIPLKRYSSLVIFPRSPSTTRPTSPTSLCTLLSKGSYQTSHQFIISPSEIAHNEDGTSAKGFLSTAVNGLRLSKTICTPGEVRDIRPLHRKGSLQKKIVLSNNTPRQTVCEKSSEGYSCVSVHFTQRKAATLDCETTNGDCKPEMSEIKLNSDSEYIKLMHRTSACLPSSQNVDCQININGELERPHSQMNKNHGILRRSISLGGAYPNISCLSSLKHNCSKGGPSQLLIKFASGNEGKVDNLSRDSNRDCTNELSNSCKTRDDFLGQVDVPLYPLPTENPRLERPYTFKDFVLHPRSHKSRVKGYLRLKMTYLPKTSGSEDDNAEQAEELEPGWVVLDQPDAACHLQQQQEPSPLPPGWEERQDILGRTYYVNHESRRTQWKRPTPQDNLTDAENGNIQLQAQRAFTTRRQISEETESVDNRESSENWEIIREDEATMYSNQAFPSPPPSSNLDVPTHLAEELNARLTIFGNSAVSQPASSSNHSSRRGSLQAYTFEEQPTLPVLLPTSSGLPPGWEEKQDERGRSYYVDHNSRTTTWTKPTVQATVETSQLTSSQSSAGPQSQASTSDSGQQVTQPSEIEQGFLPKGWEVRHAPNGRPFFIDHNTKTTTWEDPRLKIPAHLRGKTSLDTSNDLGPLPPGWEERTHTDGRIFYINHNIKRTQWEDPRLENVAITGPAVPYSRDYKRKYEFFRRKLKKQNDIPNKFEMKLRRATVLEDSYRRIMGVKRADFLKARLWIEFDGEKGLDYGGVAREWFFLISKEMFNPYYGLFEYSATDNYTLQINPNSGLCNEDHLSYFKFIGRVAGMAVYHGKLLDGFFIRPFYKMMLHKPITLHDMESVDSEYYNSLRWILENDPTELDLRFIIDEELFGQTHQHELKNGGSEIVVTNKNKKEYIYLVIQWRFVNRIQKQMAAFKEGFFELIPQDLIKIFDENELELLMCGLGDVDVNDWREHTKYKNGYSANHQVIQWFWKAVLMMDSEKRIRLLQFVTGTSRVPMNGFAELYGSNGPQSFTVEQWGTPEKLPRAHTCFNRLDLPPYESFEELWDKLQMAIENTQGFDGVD
# PARP1 = PARP1 protein levels in treated cells (Western blot / high-content microscopy); conditions: U-2 OS cancer cells; Fig. 16c
# Experimental: Images were analyzed with the inbuilt Olympus ScanR Image Analysis Software Version 3.0.1, a dynamic background correction was applied, and nuclei segmentation was performed using an integrated intensity-based object detection module based on the DAPI signal. All downstream analyses were focused on properly detected nuclei containing a 2C-4C DNA content as measured by total and mean DAPI intensities. Fluorescence intensities were quantified and are depicted as arbitrary units. Color-coded scatter plots of asynchronous cell populations were generated with Spotfire data visualization software (TIBCO) and GraphPad Prism 8.0 was used for depicting data as violin plots. Within one experiment, similar cell numbers were compared for the different conditions. […] Representative scatter plots and quantifications of independent experiments, typically containing several thousand cells each, are shown. […]
# TRIP12 [1] = target: T2, TRIP12 (Homo sapiens, UniProt Q14669); assay: In vivo ubiquitin ligase activity assay in cells (GFP-TRIP12 and HA-ubiquitin over-expressed, immunoprecipitation); format: cell-based; conditions: GFP-TRIP12 immunoprecipitated and probed for HA-ubiquitin; Fig. 16b
# T2 construct: The full-length TRIP12 (TRIP12-203, transcript ENST 00000389044.8) was cloned into the pAc-GFP1-C1 (Clontech) vector; expressed in transfected cells
# T2 sequence (Q14669 with tags, fused parts or gaps): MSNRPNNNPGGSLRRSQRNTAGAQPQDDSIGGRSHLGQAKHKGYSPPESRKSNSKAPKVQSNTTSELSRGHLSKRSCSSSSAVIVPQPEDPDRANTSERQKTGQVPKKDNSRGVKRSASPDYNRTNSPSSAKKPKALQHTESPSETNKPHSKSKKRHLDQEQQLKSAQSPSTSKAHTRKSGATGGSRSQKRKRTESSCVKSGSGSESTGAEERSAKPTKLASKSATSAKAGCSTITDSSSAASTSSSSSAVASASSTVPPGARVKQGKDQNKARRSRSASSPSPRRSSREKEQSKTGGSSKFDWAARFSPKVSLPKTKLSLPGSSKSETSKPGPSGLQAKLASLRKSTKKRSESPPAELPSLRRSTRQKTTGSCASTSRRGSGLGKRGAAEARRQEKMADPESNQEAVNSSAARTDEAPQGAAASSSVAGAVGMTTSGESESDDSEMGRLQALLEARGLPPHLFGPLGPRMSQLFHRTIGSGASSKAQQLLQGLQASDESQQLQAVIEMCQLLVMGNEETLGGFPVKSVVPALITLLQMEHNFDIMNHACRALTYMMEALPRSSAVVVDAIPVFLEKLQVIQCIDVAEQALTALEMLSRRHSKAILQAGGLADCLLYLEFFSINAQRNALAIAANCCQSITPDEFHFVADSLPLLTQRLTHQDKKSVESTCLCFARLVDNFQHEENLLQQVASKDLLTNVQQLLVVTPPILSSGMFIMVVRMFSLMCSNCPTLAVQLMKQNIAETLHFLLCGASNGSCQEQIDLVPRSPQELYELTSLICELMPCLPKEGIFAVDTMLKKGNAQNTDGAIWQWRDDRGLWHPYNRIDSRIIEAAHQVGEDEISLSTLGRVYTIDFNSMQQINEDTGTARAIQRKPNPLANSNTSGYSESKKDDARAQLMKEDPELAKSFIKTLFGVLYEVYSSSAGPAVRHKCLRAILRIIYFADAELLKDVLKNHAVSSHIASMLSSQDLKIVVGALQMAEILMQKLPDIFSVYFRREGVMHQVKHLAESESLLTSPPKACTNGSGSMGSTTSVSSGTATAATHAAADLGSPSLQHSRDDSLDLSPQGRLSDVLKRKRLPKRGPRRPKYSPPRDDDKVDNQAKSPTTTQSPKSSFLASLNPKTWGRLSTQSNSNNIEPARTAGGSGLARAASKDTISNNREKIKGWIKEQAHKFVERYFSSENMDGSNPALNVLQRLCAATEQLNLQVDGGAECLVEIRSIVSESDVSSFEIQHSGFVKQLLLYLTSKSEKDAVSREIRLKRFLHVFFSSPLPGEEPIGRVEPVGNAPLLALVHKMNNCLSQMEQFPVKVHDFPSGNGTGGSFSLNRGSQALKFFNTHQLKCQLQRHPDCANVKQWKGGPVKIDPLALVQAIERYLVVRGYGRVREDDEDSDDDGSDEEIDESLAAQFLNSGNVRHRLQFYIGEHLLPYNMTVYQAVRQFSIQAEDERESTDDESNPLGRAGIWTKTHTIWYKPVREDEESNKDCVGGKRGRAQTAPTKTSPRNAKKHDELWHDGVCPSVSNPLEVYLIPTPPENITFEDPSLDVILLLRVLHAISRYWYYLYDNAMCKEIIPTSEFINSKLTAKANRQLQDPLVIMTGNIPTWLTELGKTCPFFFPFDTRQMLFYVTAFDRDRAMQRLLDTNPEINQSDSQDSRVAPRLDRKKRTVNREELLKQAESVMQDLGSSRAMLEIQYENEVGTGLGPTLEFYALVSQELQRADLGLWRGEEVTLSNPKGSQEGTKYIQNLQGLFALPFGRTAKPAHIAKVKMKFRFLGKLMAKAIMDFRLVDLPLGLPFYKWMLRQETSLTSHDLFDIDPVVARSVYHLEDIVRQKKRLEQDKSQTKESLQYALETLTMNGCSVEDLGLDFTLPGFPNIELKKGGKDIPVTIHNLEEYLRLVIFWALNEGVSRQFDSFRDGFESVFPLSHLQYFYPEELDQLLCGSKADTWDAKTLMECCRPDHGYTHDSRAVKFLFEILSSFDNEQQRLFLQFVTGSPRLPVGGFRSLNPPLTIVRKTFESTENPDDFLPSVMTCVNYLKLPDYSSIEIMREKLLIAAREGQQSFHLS
# Experimental: HEK293T or U-2 OS cells transfected with the indicated plasmids and siRNAs were washed twice with cold PBS and directly lysed on ice with RIPA buffer (50 mM Tris- HCI pH 8.0, 150 mM NaCl, 1% Igepal CA630, 0.1% SDS, 0.1% Na-deoxycholic acid), supplemented with 2 mM MgCl2, cOmplete inhibitor cocktail (Roche), phosphoSTOP (Roche), 25 U/ml benzonase, 1 mM phenylmethylsulfonylfluoride (PMSF), and 10 mM N-ethylmaleimide (NEM). Lysates were incubated for 5 minutes at room temperature and then centrifuged at 15'000 x g for 15 minutes. […] Beads were collected by centrifugation, washed four times with RIPA buffer and eluted by boiling in 10x SDS-PAGE sample buffer. Samples were subjected to SDS-PAGE for immunoblotting.
# TRIP12 [2] = target: T2, TRIP12; assay: In vitro ubiquitin ligase activity assay (TRIP12 auto-ubiquitylation, with and without PAR chains); format: biochemical; conditions: absence and presence of PAR chains; Fig. 16a
# Experimental: HEK293T cells were transfected with plasmids encoding FLAG-TRIP12 WT or the point mutants R869A or C2034A. Cells were lysed in TNE buffer (50 mM Tris-HCI pH 8.0, 150 mM NaCl, 0,1% Igepal CA630, 1 mM EDTA) supplemented with 2 mM MgCl2, cOmplete inhibitor cocktail (Roche), phosphoSTOP (Roche) and 25 U/ml benzonase. One milligram of protein lysates was immunoprecipitated using protein G- sepharose (GE Heltcare) coupled to 1 µl of anti-FLAG antibody for 3 hours at 4°C. After four washes with IP buffer the beads were first equilibrated in TE buffer (50 mM Tris-HCI pH 8.0, 150 mM NaCl) supplemented with cOmplete inhibitor cocktail (Roche), 1 mM PMSF, and then re-suspended in 5 volumes of TE buffer with 0.3 mg/ml FLAG peptide (3x FLAG peptide, Sigma) for 1 hour at 4°C at low rpm. Samples were then centrifuged at 100 x g for two minutes and the supernatant containing the eluted protein was stored at -80°C.
# Auto-PARylated PARP1 was bound to histidine beads (ProBond) for 45 minutes at 4°C. The beads were then equilibrated in reaction buffer (25 mM Tris-HCI pH 7.4, 100 mM NaCl) and equally distributed in reaction tubes. […]
# Smurf2 = Smurf2 (Homo sapiens, UniProt Q9HAU4); conditions: cited from earlier work
# Smurf2, sequence (Q9HAU4 whole entry, species assumed): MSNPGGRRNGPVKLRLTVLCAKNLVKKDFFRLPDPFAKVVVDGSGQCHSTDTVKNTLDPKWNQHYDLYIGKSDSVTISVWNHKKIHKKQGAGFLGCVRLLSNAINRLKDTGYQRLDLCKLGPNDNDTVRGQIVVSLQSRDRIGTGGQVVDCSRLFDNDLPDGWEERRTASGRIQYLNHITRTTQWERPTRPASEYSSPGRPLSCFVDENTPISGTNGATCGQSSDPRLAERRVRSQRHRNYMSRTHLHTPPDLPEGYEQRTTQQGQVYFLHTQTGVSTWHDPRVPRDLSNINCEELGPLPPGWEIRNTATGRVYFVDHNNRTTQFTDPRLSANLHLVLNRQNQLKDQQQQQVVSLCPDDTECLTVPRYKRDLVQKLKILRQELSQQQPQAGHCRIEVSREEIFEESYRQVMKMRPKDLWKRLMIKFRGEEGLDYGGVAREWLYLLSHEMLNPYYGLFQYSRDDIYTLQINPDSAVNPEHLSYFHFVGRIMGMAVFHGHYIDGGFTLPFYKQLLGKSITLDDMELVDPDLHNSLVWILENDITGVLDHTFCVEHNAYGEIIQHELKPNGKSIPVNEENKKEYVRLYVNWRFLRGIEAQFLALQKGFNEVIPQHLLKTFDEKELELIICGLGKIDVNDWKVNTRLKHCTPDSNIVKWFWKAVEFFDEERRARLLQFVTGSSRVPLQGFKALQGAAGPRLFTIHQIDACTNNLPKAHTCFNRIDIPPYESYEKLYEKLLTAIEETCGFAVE
# [3] = test system: BRCA-proficient cancer cells; assay: Clonogenic survival (colony formation) assay with PARPi after siRNA down-regulation of TRIP12; format: cell-based, Human; conditions: siRNA against TRIP12; increasing doses of PARPi; 10 days; rescued by PARP1 co-depletion; Fig. 6a-d, 12a-c
# Experimental: Human U-2 OS cells (ATCC), RPE-1 (ATCC), HEK293T (ATCC), MCF-7 (kindly provided by Ross Chapman), MDA-MB-436 (kindly provided by Michael Hottiger), U-2 OS PARP1 KO cells (kindly provided by Keith Caldecott) and HeLa Kyoto PARP1-LAP cells stably expressing EGFP-tagged PARP1 from its natural promoter (kindly provided by Stoyno S. Stoynov) were grown under standard sterile cell culture conditions (37°C, humidified atmosphere, 5% CO2) in Dulbecco's modified Eagle's medium (DMEM, Thermo Fisher Scientific) containing 10% fetal bovine serum (GIBCO) and 1% of penicillin-streptomycin antibiotics. HCC1143 cells (kindly provided by Mohamed Bentires-Alj) were grown in RPMI-1640 medium (Thermo Fisher Scientific) containing 10% fetal bovine serum (GIBCO) and 1% penicillin- streptomycin antibiotics. SUM149PT (generated by the Ethier laboratory; available at http://www.bioivt.com/ and kindly provided by Alessandro Sartori) were grown in Ham's F-12 medium (Thermo Fisher Scientific) containing 10% fetal bovine serum and 1% of penicillin-streptomycin antibiotics. All cultured cells were routinely tested for mycoplasma contamination and assessed by quantitative image-based cytometry (QIBC) for proper proliferation and absence of abnormal stress signals. […] Transfections with siRNAs were performed for 72h, unless stated otherwise, with Ambion Silencer Select siRNA using Lipofectamine RNAi/MAX (Thermo Fisher Scientific). For individual transfections the siRNAs were used at a final concentration of 25nM. When multiple siRNAs were combined, the final concentration was kept constant in all samples of an experiment. The following Ambion Silencer Select siRNAs were used: TRIP12 (s17808, s17809, s17810), PARP1 (s1098), DTX1 (s4355, s4356), DTX2 (s41519, s223231), DTX4 (s23319, s23321), HUWE1 (s19596, s19597), RNF146 (s37821, s37822). […] Cells were then incubated for 10 days and the number of colonies with more than 50 cells was counted after staining with crystal violet (0.5% crystal violet in 20% ethanol). […]
smiles,measurement,setting,value
"CCc1ccc(C=CC(=O)Nc2ccc(C(C)=O)cc2)o1 [Heclin, N-(4-Acetylphenyl)-3-(5-ethyl-2-furanyl)-2-propenamide]",sensitization of cancer cells to PARPi in clonogenic survival assays,cancer cells,synergizes with the PARP inhibitor Olaparib to kill cancer cells; also recorded: sensitized cancer cells to PARPi
same,inhibition of ubiquitin ligase WWP2,WWP2,inhibit
same,inhibition of ubiquitin ligase Nedd4,Nedd4,inhibit
same,PARP1 levels upon Heclin treatment of cells,PARP1,"stabilizes PARP1 in U-2 OS cancer cells in a time- and dose-dependent manner; also recorded: elevated PARP1 levels, in a time- and dose-dependent manner"
same,TRIP12 activity in vivo,TRIP12 [1],inhibited
same,TRIP12 activity in vitro,TRIP12 [2],inhibited
same,inhibition of ubiquitin ligase Smurf2,Smurf2,inhibit
O=C(c1cc(Cc2n[nH]c(=O)c3ccccc23)ccc1F)N1CCN(C(=O)C2CC2)CC1 [Olaparib],clonogenic survival upon PARPi exposure after TRIP12 down-regulation,[3],greatly sensitized
CNCc1ccc(-c2[nH]c3cc(F)cc4c3c2CCNC4=O)cc1 [Rucaparib],clonogenic survival upon PARPi exposure after TRIP12 down-regulation,[3],Very similar results
Cn1ncnc1[C@H]1c2n[nH]c(=O)c3cc(F)cc(c23)N[C@@H]1c1ccc(F)cc1 [Talazoparib],clonogenic survival upon PARPi exposure after TRIP12 down-regulation,[3],Very similar results
